The values that follow are results of earlier work, collected in patent US20180228811A1, “GDNF INDUCTION FOR THE TREATMENT OF RETINAL DISORDERS” (THE SCHEPENS EYE RESEARCH INSTITUTE, INC., priority 2014, published 2018).

The test system of this series is photoreceptors. The note with it: rd10 mouse, systemic treatment (Mitton et al. 2014); cited from earlier work.

Consider `CCCC(CCC)C(=O)O` [VPA, Valproic acid], for which the “photoreceptor rescue, result in words” value is “partial photoreceptor rescue”.
